# Assay results reported in patent US8546403B2, “Compounds that modulate intracellular calcium” (Calcimedica, Inc., priority 2010, dated 2013).
# Experiment: Microsomal stability of compounds (liver microsomes, LC/MS/MS)
# Format: in vitro ADME
# Settings: 5 μM test compound, 1 mg/mL microsomal protein, 37° C. up to 60 minutes, species and Phase I / Phase I+II not given
# Experimental: Microsomal Stability of Compounds Described Herein
# Liver microsomes are purchased from XenoTech, LLC (Lenexa, Kans.). Other chemicals are obtained from Sigma-Aldrich (Milwaukee, Wis.). Solvents for LC/MS/MS mobile phases and disposable labware are obtained from various vendors.
# Study Protocol Phase I Only (Oxidative Metabolism in the Presence of NADPH-Regenerating System but without UDPGA):
# A mixture of the test compound and liver microsomes (475 μL total) are pre-incubated for 5 minutes at 37° C. The reactions are initiated by the addition of 25 μL of the co-factor NADPH regenerating system) and are allowed to proceed at 37° C. for up to 60 minutes. The final concentrations in the assay were: 5 μM test compound, 1 mg/mL microsomal protein, 1 mM NADP+, 5 mM glucose-6-phosphate and 1 U/mL glucose-6-phosphate dehydrogenase in 50 mM potassium phosphate (pH 7.4) containing 3.3 mM MgCl2 and 100 μM EDTA. […] At pre-determined time points, the reactions are terminated by removing 50 μL-aliquots and quenching them with […] of ACN mixture containing 0.5 μM of the internal standard (carbamazepine) to achieve protein precipitation. The samples are vortexed, centrifuged at 4000 rpm (3400 rcf) for 15 minutes, and clear supernatants are analyzed by LC/MS/MS.
# Phase I and II: (Oxidative Metabolism and Conjugation in the Presence of NADPH-Regenerating System and UDPGA):
# The reaction mixtures are prepared similar to what is described above, except 6.6 mM UDPGA, 6.25 μg/mL alamethicin, and 1.25 mM of D-Saccharic acid 1,4-lactone (final assay concentrations) are also added together with the NADPH-regenerating system. Midazolam and 4-methylumbelliferone are used as positive controls for Phase I and Phase II, respectively.
# Bioanalysis is conducted using a non-GLP LC/MS/MS method. Calibration curves are not generated and the ratios of the test compound peak area to the internal standard peak area are used to determine the relative amounts of test compound remaining at each time point.
row,SMILES,Microsomal t ½ (min)
1,Cc1ccccc1C(=O)Nc1cnc(-c2cc3c(cc2Cl)OC(F)(F)O3)cn1 [Compound 17],Stable (Stable is defined herein as less than 10% degradation)
2,Cc1ccc(F)cc1C(=O)Nc1cnc(-c2cc3c(cc2Cl)OC(F)(F)O3)cn1 [Compound 19],Stable (Stable is defined herein as less than 10% degradation)
3,Cc1cc2c(cc1-c1cnc(NC(=O)c3c(F)cccc3F)cn1)OC(F)(F)O2 [Compound 23],Stable (Stable is defined herein as less than 10% degradation)
4,O=C(Nc1ccc(-c2cc3c(cc2Cl)OC(F)(F)O3)cn1)c1c(F)cccc1F [Compound 3],Stable (Stable is defined herein as less than 10% degradation)
5,Cc1cc2c(cc1-c1ccc(NC(=O)c3c(F)cncc3F)nc1)OC(F)(F)O2 [Compound 35],Stable (Stable is defined herein as less than 10% degradation)
6,O=C(Nc1cnc(-c2cc3c(cc2Cl)OC(F)(F)O3)cn1)c1cccc(F)c1F [Compound 18],Stable (Stable is defined herein as less than 10% degradation)
7,CC(C)C(=O)Nc1ccc(-c2cc3c(cc2Cl)OC(F)(F)O3)cn1 [Compound 34],Stable (Stable is defined herein as less than 10% degradation)
8,Cc1cc2c(cc1-c1cnc(NC(=O)c3ccccc3F)cn1)OC(F)(F)O2 [Compound 25],Stable (Stable is defined herein as less than 10% degradation)
9,Cc1nnsc1C(=O)Nc1cnc(-c2cc3c(cc2Cl)OC(F)(F)O3)cn1 [Compound 14],Stable (Stable is defined herein as less than 10% degradation)
10,O=C(Nc1ccc(-c2cc3c(cc2Cl)OC(F)(F)O3)cn1)c1ccncc1Cl [Compound 8],Stable (Stable is defined herein as less than 10% degradation)
11,Cc1cc2c(cc1-c1ccc(NC(=O)c3c(F)cccc3F)nc1)OC(F)(F)O2 [Compound 21],Stable (Stable is defined herein as less than 10% degradation)
12,O=C(Nc1ccc(-c2cc3c(cc2Cl)OC(F)(F)O3)cn1)c1c(F)cncc1F [Compound 9],Stable (Stable is defined herein as less than 10% degradation)
13,Cc1cc2c(cc1-c1cnc(NC(=O)c3c(F)cncc3F)cn1)OC(F)(F)O2 [Compound 28],Stable (Stable is defined herein as less than 10% degradation)
14,O=C(Nc1cnc(-c2cc3c(cc2Cl)OC(F)(F)O3)cn1)c1ccccc1F [Compound 13],Stable (Stable is defined herein as less than 10% degradation)

# Same assay, conditions: pH 7.4, 5 μM test compound, 1 mg/mL microsomal protein, 37° C. up to 60 minutes, species and Phase I / Phase I+II not given, read-out: Microsomal t ½
row,SMILES,half-life at 5 μM [min]
1,O=C(Nc1ccc(-c2cc3c(cc2Cl)OC(F)(F)O3)cn1)C1CCC1 [Compound 30],11
2,Cc1ccccc1C(=O)Nc1ccc(-c2cc3c(cc2C)OC(F)(F)O3)cn1 [Compound 22],109
3,O=C(Nc1cnc(-c2cc3c(cc2Cl)OC(F)(F)O3)cn1)C1CCCC1 [Compound 29],38
4,Cc1cc2c(cc1-c1ccc(NC(=O)c3c(F)cccc3F)nc1)OCO2 [Compound 10],22
5,O=C(Nc1ccc(-c2cc3c(cc2Br)OCO3)cn1)c1c(F)cccc1F [Compound 1],6
6,O=C(CCc1ccccc1)Nc1ccc(-c2cc3c(cc2Cl)OC(F)(F)O3)cn1 [Compound 31],26
7,[2H]C1([2H])Oc2cc(C)c(-c3ccc(NC(=O)c4c(F)cccc4F)nc3)cc2O1 [Compound 15],36
8,O=C(Nc1ccc(-c2cc3c(cc2Cl)OC(F)(F)O3)cn1)c1ccncc1F [Compound 4],281
9,O=C(Nc1ccc(-c2cc3c(cc2Cl)OC(F)(F)O3)cn1)C1CCCC1 [Compound 27],40
10,Cc1c(F)cccc1C(=O)Nc1cnc(-c2cc3c(cc2Cl)OC(F)(F)O3)cn1 [Compound 20],74
11,Cc1ccc(F)cc1C(=O)Nc1cnc(-c2cc3c(cc2C)OC(F)(F)O3)cn1 [Compound 26],47
12,O=C(Nc1ccc(-c2cc3c(cc2Cl)OC(F)(F)O3)cn1)C1CC1 [Compound 33],81
13,[2H]C1([2H])Oc2cc(C)c(-c3cnc(NC(=O)c4c(F)cccc4F)cn3)cc2O1 [Compound 16],17
14,Cc1ccccc1C(=O)Nc1cnc(-c2cc3c(cc2C)OC(F)(F)O3)cn1 [Compound 24],67
15,CCCC(=O)Nc1ccc(-c2cc3c(cc2Cl)OC(F)(F)O3)cn1 [Compound 32],19
16,O=C(Nc1ccc(-c2cc3c(cc2Cl)OC(F)(F)O3)cn1)c1ccncc1Cl [Compound 7],339
17,O=C(Nc1ccc(-c2cc3c(cc2Br)OCO3)cc1)c1c(F)cccc1F [Compound 2],3
